The results in this text go back to US7511074B2, “Tetrafluorobenzyl derivatives and pharmaceutical composition for preventing and treating acute and chronic neurodegenerative diseases in central nervous system containing the same” (AmKor Pharma, Inc., priority 2002, dated 2009).

In assay [1] the test system is Mouse cortical cell cultures. Kind of assay: NMDA-induced excitotoxicity in mixed cortical cell cultures (LDH release). Format: cell-based. To be noted: 300 μM NMDA for 10 min, co-treatment; LDH release 24 hr later. On the procedure:
Mouse cortical cell cultures (DIV 12-14) were exposed to 300 μM NMDA for 10 min, alone or with inclusion of 3-300 μM 2-Hydroxy-TTBA. Neuronal death was analyzed 24 hr later by measuring levels of LDH released into the bathing medium, mean ±SEM (n=9-12 culture wells per condition), scaled to mean LDH efflux value 24 hr after sham wash (=0) and continuous exposure to 500 μM NMDA (=100) that causes near complete neuronal death. *, Significant difference from the vehicle control, p<0.05 using ANOVA and Student-Neuman-Keuls' test.
Mouse cortical cell cultures (DIV 12-14) were exposed to 300 μM NMDA for 10 min, alone (□) or with inclusion of 3-300 μM 2-Hydroxy-TTS (●), 2-Hydroxy-TTA (◯), 2-Ethan-TTBA (▾), 2-Propan-TTBA (∇), or 2-Cyclohexan-TTBA (▪). Neuronal death was analyzed 24 hr later by measuring levels of LDH released into the bathing medium, mean ±SEM (n=9-12 culture wells per condition), scaled to mean LDH efflux value 24 hr after sham wash (=0) and continuous exposure to 500 μM NMDA (=100). *, Significant difference from the vehicle control, p<0.05 using ANOVA and Student-Neuman-Keuls' test.
For mixed neuron-glia culture, mouse cerebral cortices were removed from brains of the 14-16 day-old-fetal mice (E14-16), gently triturated and plated on 24 well plates (2×10^5 cells/plate) precoated with 100 μg/ml poly-D-lysine and 4 μg/ml laminine. […]

The test system of assay [2] is Sprague-Dawley rats, occlusion of middle cerebral artery. Kind of assay: Transient focal cerebral ischemia (60 min MCAO), infarct volume. Format: in vivo, rat. Here is the method: Adult rats received transient cerebral ischemia by occluding right middle cerebral artery and both common carotid arteries for 60 min with intraperitoneal injections of vehicle or 50 mg/kg 2-Hydroxy-TTBA at 5 min, 30 min, or 1 hr after reperfusion. Infarct volume was analyzed 24 hr later after staining brain slices with 2% 2,3,5-triphenyltetrazolium chloride (TTC), mean ±SEM (n=8-11 rats per each condition). *, Significant difference from the vehicle control, p<0.05 using ANOVA and Student-Neuman-Keuls' test.
Adult rats received transient cerebral ischemia by occluding right middle cerebral artery and both common carotid arteries for 60 min with intraperitoneal injections of vehicle (control) or 50 or 100 mg/kg 2-Hydroxy-TTBA at 5 min after reperfusion. Infarct volume was analyzed 24 hr later after staining brain slices with 2% 2,3,5-triphenyltetrazolium chloride (TTC), mean ±SEM (n=7-8 rats per each condition). *, Significant difference from the vehicle control, p<0.05 using ANOVA and Student-Neuman-Keuls' test.
Adult rats received transient cerebral ischemia by occluding right middle cerebral artery and both common carotid arteries for 60 min, with intravenous injections of vehicle (control) or 5 mg/kg 2-Hydroxy-TTBA at 30 min after occlusion or 5 min, 30 min, 1 hr, 2 hr, or 4 hr after reperfusion. Infarct volume was analyzed 24 hr later, mean ±SEM (n=8-11 rats per each condition). *, Significant difference from the vehicle control, p<0.05 using ANOVA and Student-Neuman-Keuls' test.
Adult rats received transient cerebral ischemia by occluding right middle cerebral artery and both common carotid arteries for 60 min, with intravenous injections of vehicle (control) or 1, 2.5, 5, 10 or 20 mg/kg 2-Hydroxy-TTBA at 5 min after reperfusion. Infarct volume was analyzed 24 hr later, mean ±SEM (n=8-10 rats per each condition). *, Significant difference from the vehicle control, p<0.05 using ANOVA and Student-Neuman-Keuls' test.
Adult rats received transient cerebral ischemia by occluding right middle cerebral artery and both common carotid arteries for 60 min, with oral administrations of vehicle (control) or 10 or 20 mg/kg 2-Hydroxy-TTBA at 5 min after reperfusion. Infarct volume was analyzed 24 hr later, mean ±SEM (n=8-10 rats per each condition). *, Significant difference from the vehicle control, p<0.05 using ANOVA and Student-Neuman-Keuls' test.
Sprague-Dawley rats were anesthetized with chloral hydrate, and subjected to focal cerebral ischemia by occlusion of middle cerebral artery (MCAO) as previously described [Tamura et al., J. Cerebr. Blood Flow Metab. 1:53-60 (1981)]. Both common carotid arteries (CCAs) were exposed and right middle cerebral artery (rMCA) was exposed under the surgical microscope by making a 3 mm diameter craniotomy rostral to the foramen ovale. CCAs and rMCA were occluded with microclips. The clips were released 60 min later and restoration of blood flow in rMCA was observed under the microscope
Animals received MCAO for 60 min, alone or with administration of 2-Hydroxy-TTBA (50 mg/kg, i.p.) at indicated points of time after reperfusion. Saline was injected as a control. Animals were euthanized 24 hr later and brains removed and sectioned coronally into seven 2-mm slices in a brain matrix. […] The infarction area, outline in white, was measured (TINA image analysis system) and infarction volume was calculated by summing the infarct volume showing white of sequential 2-mm-thick section, mean ±SEM (n=8-12 rats/condition) (FIG. 8a). […]

Setting [3] is: intravenous, 5 min after reperfusion, 60 min MCAO.

The structures appear in SMILES notation. A value given as a limit tells only on which side of the number the result lay.

Turning to `O=C(O)c1cc(NCc2c(F)c(F)c(C(F)(F)F)c(F)c2F)ccc1O` [2-Hydroxy-TTBA, 2-hydroxy-5-(2,3,5,6-tetrafluoro-4-trifluoromethylbenzylamino)benzoic acid], the “doses at which NMDA-induced neuronal death was blocked/prevented” value in assay [1] fell in the range of 10 to 300 µM. Further, in assay [2] (5 mg/kg intravenous, 60 min MCAO, infarct volume 24 hr later), the “time after reperfusion up to which delayed injection significantly attenuated infarct volume” value was “up to 4 hr”. Moreover, the “time after reperfusion up to which delayed administration significantly reduced infarct volume” value in assay [2] (50 mg/kg i.p., 60 min MCAO, infarct volume 24 hr later) is “up to 1 hr”. Besides, the “infarct volume after oral administration” value in assay [2] (10 or 20 mg/kg p.o. at 5 min after reperfusion, 24 hr after 60 min MCAO) was “reduced infarct volume”. Besides, in assay [2] (setting [3]), the “intravenous doses at which protective effects were observed” value is listed as “higher than 2.5 mg/kg” and the “lowest intravenous dose attenuating infarct volume” value was at least 1 mg/kg.
